Data: PMC7327383, “The affinity and selectivity of α‐adrenoceptor antagonists, antidepressants, and antipsychotics for the human α1A, α1B, and α1D‐adrenoceptors” (Pharmacology Research & Perspectives, 2020)
Where two headings read alike, the source gives them in different places.

How the values were obtained:
[1] = target: T1, full-length human α1D-adrenoceptor (Homo sapiens, UniProt P25100); test: [3H]prazosin whole-cell competition binding, CHO-α1D cells
T1 sequence (P25100 1-572): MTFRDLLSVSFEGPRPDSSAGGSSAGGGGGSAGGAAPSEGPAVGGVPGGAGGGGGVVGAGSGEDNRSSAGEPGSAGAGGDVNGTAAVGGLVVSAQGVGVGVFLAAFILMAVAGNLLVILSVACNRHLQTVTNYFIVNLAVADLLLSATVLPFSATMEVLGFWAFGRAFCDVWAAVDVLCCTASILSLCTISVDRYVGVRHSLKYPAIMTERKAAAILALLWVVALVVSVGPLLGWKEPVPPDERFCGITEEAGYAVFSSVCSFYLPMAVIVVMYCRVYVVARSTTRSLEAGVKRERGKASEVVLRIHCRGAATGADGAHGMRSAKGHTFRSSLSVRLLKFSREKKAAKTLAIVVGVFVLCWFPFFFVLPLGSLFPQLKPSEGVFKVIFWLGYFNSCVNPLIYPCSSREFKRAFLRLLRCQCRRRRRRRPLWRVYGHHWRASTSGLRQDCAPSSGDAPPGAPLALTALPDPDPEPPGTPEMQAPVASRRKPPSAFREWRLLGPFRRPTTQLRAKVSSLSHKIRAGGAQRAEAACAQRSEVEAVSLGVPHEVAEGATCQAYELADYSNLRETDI

human α1B-adrenoceptor = target: T2, human α1B-adrenoceptor (Homo sapiens, UniProt P35368); test: [3H]prazosin whole-cell competition binding, CHO-α1B cells
T2 construct: CHO cells stably expressing either the full‐length human α1A, α1B, or α1D‐adrenoceptor
T2 sequence (P35368 1-520): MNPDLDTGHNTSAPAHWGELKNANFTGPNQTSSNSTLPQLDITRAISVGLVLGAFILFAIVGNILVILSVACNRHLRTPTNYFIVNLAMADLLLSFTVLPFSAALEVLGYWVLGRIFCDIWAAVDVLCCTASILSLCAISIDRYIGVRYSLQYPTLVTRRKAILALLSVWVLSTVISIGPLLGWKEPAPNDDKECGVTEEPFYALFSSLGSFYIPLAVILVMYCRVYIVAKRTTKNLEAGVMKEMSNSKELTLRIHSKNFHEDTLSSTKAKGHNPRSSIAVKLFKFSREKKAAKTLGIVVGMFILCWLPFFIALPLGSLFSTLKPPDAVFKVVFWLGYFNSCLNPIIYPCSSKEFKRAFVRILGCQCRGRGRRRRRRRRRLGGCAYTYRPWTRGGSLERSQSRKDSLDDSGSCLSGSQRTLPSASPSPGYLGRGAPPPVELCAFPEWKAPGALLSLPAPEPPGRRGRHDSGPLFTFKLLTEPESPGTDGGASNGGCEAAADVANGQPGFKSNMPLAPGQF

human α1A-adrenoceptor = target: T3, human α1A-adrenoceptor (Homo sapiens, UniProt P35348); test: [3H]prazosin whole-cell competition binding, CHO-α1A cells; settings: single-component inhibition curve; given as log KD (negative); mean ± SE mean
T3 construct: CHO cells stably expressing either the full‐length human α1A, α1B, or α1D‐adrenoceptor
T3 sequence (P35348 1-466): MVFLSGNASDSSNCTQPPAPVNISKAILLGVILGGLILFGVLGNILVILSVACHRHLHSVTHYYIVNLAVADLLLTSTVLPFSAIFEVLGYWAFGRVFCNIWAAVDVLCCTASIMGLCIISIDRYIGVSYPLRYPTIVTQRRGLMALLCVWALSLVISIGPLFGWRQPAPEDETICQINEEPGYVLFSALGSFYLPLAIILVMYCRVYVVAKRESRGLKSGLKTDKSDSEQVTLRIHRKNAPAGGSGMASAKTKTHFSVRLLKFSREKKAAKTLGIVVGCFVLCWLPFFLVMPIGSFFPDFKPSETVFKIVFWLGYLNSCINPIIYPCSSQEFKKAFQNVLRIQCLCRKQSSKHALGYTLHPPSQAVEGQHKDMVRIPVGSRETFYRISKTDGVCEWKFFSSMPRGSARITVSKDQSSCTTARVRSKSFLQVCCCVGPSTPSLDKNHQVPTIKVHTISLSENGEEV

[2] = Log KD α1D, single-component inhibition curve, given as log KD (negative), mean ± SE mean
[3] = single-component inhibition curve, given as log KD (negative), mean ± SE mean, read-out: Log KD α1B (converted)
[4] = single-component inhibition curve, given as log KD (negative), mean ± SE mean
[5] = percentage of inhibition through first component, control

SMILES | Kd [1, 2] [nM] | Kd (human α1B-adrenoceptor; [3]) [nM] | other results
COc1ccccc1OCCNCC(O)COc1cccc2[nH]c3ccccc3c12 (stereo not drawn) [Carvedilol] | 13.5 |  | 
COc1cccc(OC)c1OCCNCC1COc2ccccc2O1 (stereo not drawn) [WB4104] |  |  | Log KD α1A (human α1A-adrenoceptor): −9.03 ± 0.04
COc1cc2nc(N3CCN(C(=O)COc4c(OC)cccc4C(C)C)CC3)nc(N)c2cc1OC [Rec15‐2615] |  |  | Log KD α1D [1, 4]: −7.89 ± 0.07
COCCCC/C(=N\OCCN)c1ccc(C(F)(F)F)cc1 [Fluvoxamine] | 10700 |  | IC50 (human α1B-adrenoceptor; read-out: Log IC50 α1B (converted)): > 100000 nM
CN1CCN2c3ncccc3Cc3ccccc3C2C1 (stereo not drawn) [Mirtazepine] |  |  | Log KD α1B (human α1B-adrenoceptor; [4]): −5.36 ± 0.03
Cc1ccc(N(CC2=NCCN2)c2cccc(O)c2)cc1 [Phentolamine] |  |  | % site 1 α1D [1, 5]: 60.5 ± 3.8% site 1
CNCCC(Oc1ccc(C(F)(F)F)cc1)c1ccccc1 (stereo not drawn) [Fluoxetine] | 12600 |  | 
COc1cc2nc(N3CCN(C(=O)COc4c(OC)cccc4C(C)C)CC3)nc(N)c2cc1OC [Rec15-2615] |  |  | Log KD α1D ([1]; log KD from 3H-prazosin whole cell binding, CHO cells, mean ± s.e.mean): -7.89 ± 0.07
O=c1[nH]c2ccccc2n1C1CCN(CCCC(c2ccc(F)cc2)c2ccc(F)cc2)CC1 [Pimozide] | 1120 | 162 | 
CNCCCN1c2ccccc2CCc2ccccc21 [Desipramine] | 3470 | 2690 | 
CC(C)NCC(O)COc1cccc2ccccc12 (stereo not drawn) [Propranolol] | 12900 |  | Kd (human α1B-adrenoceptor; app: top concentration inhibited most but not all specific binding, curve extrapolated, read-out: Log KD α1B (apparent) (converted)): 105000 nM

The next lines start with results.

Kd [1, 2] [nM] | Kd (human α1B-adrenoceptor; [3]) [nM] | SMILES | other results
331 | 61.7 | OCCOCCN1CCN(C2=Nc3ccccc3Sc3ccccc32)CC1 [Quetiapine] | 
 | 67.6 | O=C1[C@@H]2[C@H]3CC[C@H](C3)[C@@H]2C(=O)N1C[C@@H]1CCCC[C@H]1CN1CCN(c2nsc3ccccc23)CC1 [Lurasidone] | Kd ([1]; Log KD α1D site 1, high-affinity component of two-component curve, control, used for selectivity): 6.46 nM; Log KD α1D site 2 ([1]; low-affinity component of two-component curve, control): −5.92 ± 0.06; % site 1 α1D [1, 5]: 24.8 ± 3.1% site 1; % site 1 α1D ([1]; two-component inhibition curve, proportion of site 1): -8.19 ± 0.10 -5.92 ± 0.06 24.8 ± 3.1% site 1
417 | 275 | O=c1n(CCCN2CCN(c3cccc(Cl)c3)CC2)nc2ccccn12 [Trazodone] | 
19.5 |  | COc1cc2nc(N3CCN(C(=O)C4CCCO4)CC3)nc(N)c2cc1OC (stereo not drawn) [Terazosin] | 
295 | 132 | CN1CCN(CCCN2c3ccccc3Sc3ccc(Cl)cc32)CC1 [Prochlorperazine] | 
708 |  | O=C1CCc2ccc(OCCCCN3CCN(c4cccc(Cl)c4Cl)CC3)cc2N1 [Aripiprazole] | 
437 | 132 | CN1CCN(CCCN2c3ccccc3Sc3ccc(C(F)(F)F)cc32)CC1 [Trifluoperazine] | 
